Reference: ChEMBL document CHEMBL5727303, “Substituted perhydropyrrolo[3,4-c]pyrrole derivatives and the use of same” (2019)

Columns and labels:
[1] = biological target: Potassium channel subfamily K member 9 (Homo sapiens, UniProt Q9NPC2); test: (§1) In Vitro Electrophysiological Assay: In Vitro Electrophysiological Analysis of the Human TASK-1 and TASK-3 Channels Via Two-Electrode Voltage Clamp Technique in Xenopus laevis OocytesSubsequently, the oocytes were injected with 0.5-5 ng of a cRNA solution coding for TASK-1 or TASK-3. For the electrophysiological analysis of the channel proteins expressed in the oocytes, the two-electrode voltage clamp technique was used. The measurements were conducted at room temperature (21-22° C.) using a Turbo TEC 10CD amplifier (NPI), recorded at 2 kHz and filtered with 0.4 kHz. Substance administration was performed using a gravitation-driven perfusion system. Here, the oocyte is located in a measuring chamber and exposed to the solution stream of 10 ml/min. The level in the measuring chamber is monitored and regulated by sucking off the solution using a peristaltic pump.; type: cell-based
Chain of Potassium channel subfamily K member 9 (Q9NPC2 whole entry, the tested form may be a part): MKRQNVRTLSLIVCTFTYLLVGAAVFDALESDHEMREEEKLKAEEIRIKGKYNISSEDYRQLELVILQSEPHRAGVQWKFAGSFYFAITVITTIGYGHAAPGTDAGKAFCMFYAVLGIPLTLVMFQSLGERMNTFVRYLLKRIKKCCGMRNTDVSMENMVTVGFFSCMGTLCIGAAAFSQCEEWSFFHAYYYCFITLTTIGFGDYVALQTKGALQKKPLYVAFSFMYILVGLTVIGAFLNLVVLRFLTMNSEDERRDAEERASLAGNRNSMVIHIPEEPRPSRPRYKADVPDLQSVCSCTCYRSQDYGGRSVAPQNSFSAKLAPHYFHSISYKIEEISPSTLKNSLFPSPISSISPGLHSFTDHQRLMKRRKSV

[2] = biological target: Potassium channel subfamily K member 3 (Homo sapiens, UniProt O14649); test: as §1; type: cell-based
Chain of Potassium channel subfamily K member 3 (O14649 whole entry): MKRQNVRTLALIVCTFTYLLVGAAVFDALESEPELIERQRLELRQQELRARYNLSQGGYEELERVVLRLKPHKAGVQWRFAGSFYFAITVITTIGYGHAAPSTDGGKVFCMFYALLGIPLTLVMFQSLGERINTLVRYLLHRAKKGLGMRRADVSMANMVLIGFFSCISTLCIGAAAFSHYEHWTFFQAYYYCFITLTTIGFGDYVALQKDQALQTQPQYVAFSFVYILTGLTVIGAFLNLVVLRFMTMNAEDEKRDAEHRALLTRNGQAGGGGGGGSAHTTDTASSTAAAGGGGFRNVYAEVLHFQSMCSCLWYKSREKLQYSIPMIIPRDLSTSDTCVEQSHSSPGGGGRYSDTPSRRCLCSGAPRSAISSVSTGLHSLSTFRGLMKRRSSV

- IC50 [1]: 3700 nM
- IC50 [2]: 740 nM
Compound: CCOc1ccccc1NC(=O)N1CC2CN(Cc3c(-c4ccc(Br)cc4)nc4ccccn34)CC2C1 (configuration not stated)
